The test system of assay [1] is MCF7. As to the kind of experiment: Cytotoxicity against human MCF7 cells. Particulars: read-out: ED50 (the source's name). Type of assay: functional.
Assay [2] deals with P388. Put plainly: Cytotoxicity against mouse P388 cells. Type of assay: functional. Particulars: read-out: ED50 (the source's name).

Structures are written as SMILES. Converted amounts (≈) assume the structure as drawn.

Turning to `CC1(C)O[C@@H]([C@H](O)[C@@H](CNC(=O)c2ccccc2)c2ccc3c(c2)OCO3)[C@H](CO)O1`, the EC50 in assay [1] was > 30 µg/mL.

On to `O=C1N[C@H]2[C@H](O)[C@H](O)[C@@H](O)[C@H](O)[C@@H]2c2cc3c(c(O)c21)OCO3` [PANCRATISTATIN], for which the EC50 in assay [2] is 0.039 µg/mL (≈ 0.12 µM).

Consider `O=C(NC[C@@H](c1ccc2c(c1)OCO2)[C@@H](O)[C@H](O)[C@@H](O)CO)c1ccccc1`, for which, in assay [1], the EC50 is > 30 µg/mL.

As for `O=C1N[C@H]2C[C@H](O)[C@@H](O)C[C@@H]2c2cc3c(cc21)OCO3`, the EC50 in assay [2] turned out to be 0.45 µg/mL (≈ 1.62 µM).

On to `O=C1N[C@H]2[C@H](O)[C@H](O)CC[C@@H]2c2cc3c(cc21)OCO3`, for which, in assay [2], the EC50 was found to be 1.39 µg/mL (≈ 5.01 µM).

Source of the values: ChEMBL document CHEMBL1144786, “synthesis and biological evaluation of fully functionalized seco-pancratistatin analogues” (2008).
